Assays:
[1] = biological target: D(1A) dopamine receptor (Homo sapiens, UniProt P21728); test: Displacement of [3H]SCH 23390 from human dopamine D1 receptor expressed in CHO cells; format: cell-based
[2] = biological target: D(2) dopamine receptor (Homo sapiens, UniProt P14416); test: Displacement of [3H]methylspiperone from human dopamine D2 receptor expressed in CHO cells; format: cell-based
D(2) dopamine receptor, sequence (P14416 whole entry): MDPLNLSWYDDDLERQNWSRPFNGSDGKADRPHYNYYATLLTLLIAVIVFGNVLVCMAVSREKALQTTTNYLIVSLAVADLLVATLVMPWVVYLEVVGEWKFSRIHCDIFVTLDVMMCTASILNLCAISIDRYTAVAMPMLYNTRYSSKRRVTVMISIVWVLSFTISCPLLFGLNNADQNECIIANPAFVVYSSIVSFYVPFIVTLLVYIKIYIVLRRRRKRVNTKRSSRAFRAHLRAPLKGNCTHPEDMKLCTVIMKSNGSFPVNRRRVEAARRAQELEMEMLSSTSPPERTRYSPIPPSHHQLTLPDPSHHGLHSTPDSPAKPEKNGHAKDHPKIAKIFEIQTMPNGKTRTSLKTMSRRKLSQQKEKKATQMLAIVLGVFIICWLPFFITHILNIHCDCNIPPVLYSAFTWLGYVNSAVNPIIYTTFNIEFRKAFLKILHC

D(1A) dopamine receptor, sequence (P21728 whole entry): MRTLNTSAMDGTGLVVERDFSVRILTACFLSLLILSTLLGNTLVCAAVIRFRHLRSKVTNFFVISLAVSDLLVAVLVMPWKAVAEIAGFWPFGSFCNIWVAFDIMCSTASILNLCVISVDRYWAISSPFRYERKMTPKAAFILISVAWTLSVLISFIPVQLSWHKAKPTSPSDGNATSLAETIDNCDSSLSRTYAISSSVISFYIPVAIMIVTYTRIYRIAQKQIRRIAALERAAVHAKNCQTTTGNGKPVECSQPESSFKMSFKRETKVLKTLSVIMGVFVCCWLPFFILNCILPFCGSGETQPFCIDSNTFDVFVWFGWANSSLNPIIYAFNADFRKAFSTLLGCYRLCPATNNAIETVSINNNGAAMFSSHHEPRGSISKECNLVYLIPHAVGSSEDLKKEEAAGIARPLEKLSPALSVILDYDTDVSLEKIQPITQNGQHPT

Compound COc1ccc(CCC(=O)NN2c3ccc(Cl)cc3N=C(N3CCN(C)CC3)c3ccccc32)cc1Cl has a Ki [1] of 56 nM and a Ki [2] of 582 nM.
CCOc1c(C(=O)NN2c3ccc(Cl)cc3N=C(N3CCN(C)CC3)c3ccccc32)sc2ccccc12 gave a Ki [1] of 28 nM and a Ki [2] of 196 nM.
CN1CCN(C2=Nc3cc(Cl)ccc3N(NC(=O)c3cccc(F)c3)c3ccccc32)CC1 showed a Ki [1] of 47 nM and a Ki [2] of 921 nM.
CN1CCN(C2=Nc3cc(Cl)ccc3N(NC(=O)C(F)(F)F)c3ccccc32)CC1 gave a Ki [1] of 86 nM and a Ki [2] of 1900 nM.
Compound CN1CCN(C2=Nc3cc(Cl)ccc3N(NC(=O)c3cccc(Cl)c3)c3ccccc32)CC1 has a Ki [1] of 4 nM and a Ki [2] of 181 nM.
CN1CCN(C2=Nc3cc(Cl)ccc3N(NC(=O)c3cccs3)c3ccccc32)CC1 showed a Ki [1] of 14 nM and a Ki [2] of 1470 nM.
Work on CN1CCN(C2=Nc3cc(Cl)ccc3N(NC(=O)c3ccccc3Oc3ccccc3)c3ccccc32)CC1 yielded a Ki [1] of 51 nM and a Ki [2] of 431 nM.
Work on CC(=O)NN1c2ccc(Cl)cc2N=C(N2CCN(C)CC2)c2ccccc21 yielded a Ki [1] of 494 nM.
CN1CCN(C2=Nc3cc(Cl)ccc3N(NC(=O)c3ccccc3)c3ccccc32)CC1 gave a Ki [1] of 157 nM and a Ki [2] of 1150 nM.
With CN1CCN(C2=Nc3cc(Cl)ccc3N(NC(=O)c3cc(Cl)cc(Cl)c3)c3ccccc32)CC1 the Ki [1] was 24 nM and the Ki [2] was 608 nM.
In the case of CN1CCN(C2=Nc3cc(Cl)ccc3N(NC(=O)c3ccccc3-n3ccnc3)c3ccccc32)CC1, the Ki [1] is reported as 88 nM and the Ki [2] is reported as 3000 nM.
For CN1CCN(C2=Nc3cc(Cl)ccc3N(NC(=O)CCc3ccccc3)c3ccccc32)CC1, the Ki [1] was 79 nM and the Ki [2] was 621 nM.
CN1CCN(C2=Nc3cc(Cl)ccc3N(NC(=O)c3ccsc3)c3ccccc32)CC1 was tested, and the Ki [1] was 9 nM and the Ki [2] was 3000 nM.
CN1CCN(C2=Nc3cc(Cl)ccc3N(NC(=O)c3c(Cl)cc(Cl)cc3Cl)c3ccccc32)CC1 showed a Ki [1] of 4 nM and a Ki [2] of 390 nM.
For CN1CCN(C2=Nc3cc(Cl)ccc3N(NC(=O)c3ccc(C(F)(F)F)cc3)c3ccccc32)CC1, the Ki [1] was 68 nM.
CN1CCN(C2=Nc3cc(Cl)ccc3N(NC(=O)c3ccon3)c3ccccc32)CC1 was tested, and the Ki [1] was 22 nM and the Ki [2] was 460 nM.
CCOc1csc(C(=O)NN2c3ccc(Cl)cc3N=C(N3CCN(C)CC3)c3ccccc32)c1 gave a Ki [1] of 10 nM and a Ki [2] of 180 nM.
CN1CCN(C2=Nc3cc(Cl)ccc3N(NC(=O)c3ccccc3N3CCCCC3)c3ccccc32)CC1 was tested, and the Ki [1] was 7.8 nM and the Ki [2] was 215 nM.
Work on CN1CCN(C2=Nc3cc(Cl)ccc3N(NC(=O)c3ccc(Cl)c(Cl)c3)c3ccccc32)CC1 yielded a Ki [1] of 12 nM and a Ki [2] of 6390 nM.
COc1cccc(C(=O)NN2c3ccc(Cl)cc3N=C(N3CCN(C)CC3)c3ccccc32)c1 was tested, and the Ki [1] was 13 nM and the Ki [2] was 1130 nM.
In the case of CN1CCN(C2=Nc3cc(Cl)ccc3N(NC(=O)c3c(N)cccc3C(F)(F)F)c3ccccc32)CC1, the Ki [1] is reported as 7 nM and the Ki [2] is reported as 92 nM.
Compound CCCC(CCC)C(=O)NN1c2ccc(Cl)cc2N=C(N2CCN(C)CC2)c2ccccc21 has a Ki [1] of 25.6 nM and a Ki [2] of 1850 nM.
Work on CN1CCN(C2=Nc3cc(Cl)ccc3N(N)c3ccccc32)CC1 yielded a Ki [1] of 280 nM and a Ki [2] of 647 nM.
For CN1CCN(C2=Nc3cc(Cl)ccc3N(NC(=O)c3ccc(Br)cc3)c3ccccc32)CC1, the Ki [1] was 14 nM and the Ki [2] was 2390 nM.
Work on CN1CCN(C2=Nc3cc(Cl)ccc3N(NC(=O)c3sccc3-c3ccccc3)c3ccccc32)CC1 yielded a Ki [1] of 39 nM and a Ki [2] of 78 nM.
With CN1CCN(C2=Nc3cc(Cl)ccc3N(NC(=O)C(C)(C)C)c3ccccc32)CC1 the Ki [1] was 98 nM.
CN1CCN(C2=Nc3cc(Cl)ccc3N(NC(=O)c3ccccc3NC3CCCCC3)c3ccccc32)CC1 gave a Ki [1] of 62 nM and a Ki [2] of 3820 nM.
CN1CCN(C2=Nc3cc(Cl)ccc3N(NC(=O)C3CCC3)c3ccccc32)CC1 was tested, and the Ki [1] was 150 nM.
Compound CCCC(=O)NN1c2ccc(Cl)cc2N=C(N2CCN(C)CC2)c2ccccc21 has a Ki [1] of 154 nM and a Ki [2] of 400 nM.
With CN1CCN(C2=Nc3cc(Cl)ccc3N(NC(=O)c3cnn(-c4ccccc4)c3C(F)(F)F)c3ccccc32)CC1 the Ki [1] was 30 nM and the Ki [2] was 2080 nM.
CN1CCN(C2=Nc3cc(Cl)ccc3N(NC(=O)CCC3CCCC3)c3ccccc32)CC1 showed a Ki [1] of 111 nM and a Ki [2] of 1950 nM.
With COc1ccc(C(=O)NN2c3ccc(Cl)cc3N=C(N3CCN(C)CC3)c3ccccc32)cc1 the Ki [1] was 47 nM and the Ki [2] was 3000 nM.
With CN1CCN(C2=Nc3cc(Cl)ccc3N(NC(=O)C3CCCCC3)c3ccccc32)CC1 the Ki [1] was 42 nM and the Ki [2] was 1780 nM.
CN1CCN(C2=Nc3cc(Cl)ccc3N(NC(=O)c3ccccc3N3CCN(C)CC3)c3ccccc32)CC1 was tested, and the Ki [1] was 237 nM and the Ki [2] was 3770 nM.
CN1CCN(C2=Nc3cc(Cl)ccc3N(NC(=O)c3ccc4ccccc4c3)c3ccccc32)CC1 was tested, and the Ki [1] was 7.4 nM and the Ki [2] was 1310 nM.
Compound CN1CCN(C2=Nc3cc(Cl)ccc3N(NC(=O)c3nccc4ccccc34)c3ccccc32)CC1 has a Ki [1] of 23 nM and a Ki [2] of 484 nM.
Compound CN1CCN(C2=Nc3cc(Cl)ccc3N(NC(=O)c3ccc4ccccc4n3)c3ccccc32)CC1 has a Ki [1] of 10 nM and a Ki [2] of 931 nM.
Compound Cc1ccc(C(=O)NN2c3ccc(Cl)cc3N=C(N3CCN(C)CC3)c3ccccc32)cc1 has a Ki [1] of 7.7 nM and a Ki [2] of 1520 nM.
For CN1CCN(C2=Nc3cc(Cl)ccc3N(NC(=O)/C=C/c3ccccc3)c3ccccc32)CC1, the Ki [1] was 103 nM and the Ki [2] was 1600 nM.
Cc1cccc(C(=O)NN2c3ccc(Cl)cc3N=C(N3CCN(C)CC3)c3ccccc32)c1 showed a Ki [1] of 3 nM and a Ki [2] of 517 nM.
CCOc1ccc2ccccc2c1C(=O)NN1c2ccc(Cl)cc2N=C(N2CCN(C)CC2)c2ccccc21 showed a Ki [1] of 65 nM and a Ki [2] of 274 nM.
Compound CN1CCN(C2=Nc3cc(Cl)ccc3N(NC(=O)c3cccnc3Cl)c3ccccc32)CC1 has a Ki [1] of 11 nM and a Ki [2] of 630 nM.
With CN1CCN(C2=Nc3cc(Cl)ccc3N(NC(=O)c3cccc(I)c3)c3ccccc32)CC1 the Ki [1] was 3.6 nM and the Ki [2] was 350 nM.
With CN1CCN(C2=Nc3cc(Cl)ccc3N(NC(=O)c3ccccc3F)c3ccccc32)CC1 the Ki [1] was 12 nM and the Ki [2] was 374 nM.
For CN1CCN(C2=Nc3cc(Cl)ccc3N(NC(=O)c3ccco3)c3ccccc32)CC1, the Ki [1] was 15 nM and the Ki [2] was 837 nM.
CN1CCN(C2=Nc3cc(Cl)ccc3N(NC(=O)c3cnc4ccccc4c3)c3ccccc32)CC1 was tested, and the Ki [1] was 28 nM.
Work on CN1CCN(C2=Nc3cc(Cl)ccc3N(NC(=O)c3c(Cl)cccc3Cl)c3ccccc32)CC1 yielded a Ki [1] of 3.4 nM and a Ki [2] of 240 nM.
For CN1CCN(C2=Nc3cc(Cl)ccc3N(NC(=O)c3ccc(Cl)cc3)c3ccccc32)CC1, the Ki [1] was 35 nM and the Ki [2] was 9250 nM.

— ChEMBL document CHEMBL1146871, “Hydrazides of clozapine: a new class of D1 dopamine receptor subtype selective antagonists” (Bioorg Med Chem Lett, 2006)
